Read-outs that look alike come from different tables or passages of the source.
Columns and labels:
MST2 = MST2 (Homo sapiens (Human), UniProt Q13188); experiment: Dundee profiling
EPHB2 [1] = biological target: T1, EPHB2 (Homo sapiens (Human), UniProt P29323); experiment: Dundee profiling
CDK3 = CDK3 (Homo sapiens (Human), UniProt Q00526); experiment: KinomeScan; format: binding; conditions: 1 uM
WNK1 [2] = biological target: T2, WNK1 (Homo sapiens (Human), UniProt Q9H4A3); experiment: KinomeScan; format: binding; conditions: 1 uM
TAK1 = TAK1 (Homo sapiens (Human), UniProt O43318); experiment: Dundee profiling
MKK2 = MKK2 (Homo sapiens (Human), UniProt P36507); experiment: Dundee profiling
MAP4K3 = MAP4K3 (Homo sapiens (Human), UniProt Q8IVH8); experiment: KinomeScan; format: binding; conditions: 1 uM
MSK1 = MSK1 (Homo sapiens (Human), UniProt O75582); experiment: Dundee profiling
WNK1 [3] = biological target: T2, WNK1; experiment: Dundee profiling
PAK6 = PAK6 (Homo sapiens (Human), UniProt Q9NQU5); experiment: Dundee profiling
RSK2 = RSK2 (Homo sapiens (Human), UniProt P51812); experiment: Dundee profiling
[4] = biological target: JAK1 (JH1domain-catalytic) (Homo sapiens (Human), UniProt P23458); experiment: KinomeScan; format: binding; conditions: 1 uM
MARK4 = MARK4 (Homo sapiens (Human), UniProt Q96L34); experiment: Dundee profiling
EPHB2 [5] = biological target: T1, EPHB2; experiment: KinomeScan; format: binding; conditions: 1 uM
NEK2a = NEK2a (Homo sapiens (Human), UniProt P51955); experiment: Dundee profiling
MNK1 = MNK1 (Homo sapiens (Human), UniProt Q9BUB5); experiment: Dundee profiling
CDK2-Cyclin A = CDK2-Cyclin A (Homo sapiens (Human), UniProt P24941); experiment: Dundee profiling
PIM3 = PIM3 (Homo sapiens (Human), UniProt Q86V86); experiment: Dundee profiling
CSK [6] = biological target: T3, CSK (Homo sapiens (Human), UniProt P41240); experiment: KinomeScan; format: binding; conditions: 1 uM
ULK3 = ULK3 (Homo sapiens (Human), UniProt Q6PHR2); experiment: KinomeScan; format: binding; conditions: 1 uM
wild type LRRK2 = wild type LRRK2 (Homo sapiens (Human), UniProt Q5S007); experiment: LRRK2 enzyme kinase assay, wild type; format: biochemical; conditions: Table 1; ATP at Km 36 μm; read-out: Enzyme IC50 wt
MKK6 = MKK6 (Homo sapiens (Human), UniProt P52564); experiment: Dundee profiling
LATS2 = LATS2 (Homo sapiens (Human), UniProt Q9NRM7); experiment: KinomeScan; format: binding; conditions: 1 uM
ERK1 = ERK1 (Homo sapiens (Human), UniProt P27361); experiment: Dundee profiling
TTBK1 = TTBK1 (Homo sapiens (Human), UniProt Q5TCY1); experiment: Dundee profiling
CDC2L5 = CDC2L5 (Homo sapiens (Human), UniProt Q14004); experiment: KinomeScan; format: binding; conditions: 1 uM
From the text: The kinase selectivity of Compound 18 was further evaluated by KinomeScan.

BTK = BTK (Homo sapiens (Human), UniProt Q06187); experiment: Dundee profiling
OSR1 = OSR1 (Homo sapiens (Human), UniProt O95747); experiment: Dundee profiling
CSK [7] = biological target: T3, CSK; experiment: Dundee profiling
NUAK1 = NUAK1 (Homo sapiens (Human), UniProt O60285); experiment: Dundee profiling
p38b MAPK = p38b MAPK (Homo sapiens (Human), UniProt Q15759); experiment: Dundee profiling
BMPR2 = BMPR2 (Homo sapiens (Human), UniProt Q13873); experiment: KinomeScan; format: binding; conditions: 1 uM
PDK1 = PDK1 (Homo sapiens (Human), UniProt O15530); experiment: Dundee profiling
AMPK = experiment: Dundee profiling
[8] = read-out: percent remaining enzymatic activity, I1, 1 μM
[9] = read-out: percent remaining enzymatic activity, I10
[10] = read-out: percent remaining enzymatic activity

Chain of TTBK1 (Q5TCY1 whole entry, species assumed): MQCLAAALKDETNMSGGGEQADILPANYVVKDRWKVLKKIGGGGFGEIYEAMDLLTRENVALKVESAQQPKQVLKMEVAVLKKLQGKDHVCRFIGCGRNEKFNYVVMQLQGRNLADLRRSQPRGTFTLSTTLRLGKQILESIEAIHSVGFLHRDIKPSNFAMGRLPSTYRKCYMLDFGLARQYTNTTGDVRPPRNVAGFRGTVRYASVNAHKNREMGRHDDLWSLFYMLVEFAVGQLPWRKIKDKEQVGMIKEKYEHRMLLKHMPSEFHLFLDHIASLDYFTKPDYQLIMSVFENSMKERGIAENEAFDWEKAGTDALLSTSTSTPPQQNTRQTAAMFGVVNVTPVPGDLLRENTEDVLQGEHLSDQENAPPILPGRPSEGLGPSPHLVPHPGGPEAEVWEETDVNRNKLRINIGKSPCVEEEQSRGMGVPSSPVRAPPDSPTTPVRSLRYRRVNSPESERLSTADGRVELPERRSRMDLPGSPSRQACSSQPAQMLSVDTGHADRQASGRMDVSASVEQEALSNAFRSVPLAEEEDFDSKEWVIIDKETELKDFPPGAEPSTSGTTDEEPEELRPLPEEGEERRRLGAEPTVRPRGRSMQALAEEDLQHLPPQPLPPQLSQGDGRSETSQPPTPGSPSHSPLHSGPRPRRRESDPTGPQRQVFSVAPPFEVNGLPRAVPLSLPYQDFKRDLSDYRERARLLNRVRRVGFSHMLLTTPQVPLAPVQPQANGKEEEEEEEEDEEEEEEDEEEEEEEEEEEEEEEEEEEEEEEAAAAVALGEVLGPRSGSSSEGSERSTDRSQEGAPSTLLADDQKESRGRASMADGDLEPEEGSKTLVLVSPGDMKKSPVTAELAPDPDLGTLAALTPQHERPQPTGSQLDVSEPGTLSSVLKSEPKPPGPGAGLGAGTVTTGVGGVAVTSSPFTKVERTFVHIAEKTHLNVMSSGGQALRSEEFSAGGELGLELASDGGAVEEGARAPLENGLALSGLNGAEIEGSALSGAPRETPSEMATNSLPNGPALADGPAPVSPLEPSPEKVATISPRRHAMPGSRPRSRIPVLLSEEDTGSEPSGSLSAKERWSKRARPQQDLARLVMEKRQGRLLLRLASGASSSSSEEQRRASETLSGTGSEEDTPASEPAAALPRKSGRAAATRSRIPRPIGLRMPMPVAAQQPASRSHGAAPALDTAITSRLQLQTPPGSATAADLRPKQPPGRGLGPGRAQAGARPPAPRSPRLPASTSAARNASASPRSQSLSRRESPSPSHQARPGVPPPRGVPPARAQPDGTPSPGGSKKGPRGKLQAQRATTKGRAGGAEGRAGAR
Chain of MKK2 (P36507 whole entry, species assumed): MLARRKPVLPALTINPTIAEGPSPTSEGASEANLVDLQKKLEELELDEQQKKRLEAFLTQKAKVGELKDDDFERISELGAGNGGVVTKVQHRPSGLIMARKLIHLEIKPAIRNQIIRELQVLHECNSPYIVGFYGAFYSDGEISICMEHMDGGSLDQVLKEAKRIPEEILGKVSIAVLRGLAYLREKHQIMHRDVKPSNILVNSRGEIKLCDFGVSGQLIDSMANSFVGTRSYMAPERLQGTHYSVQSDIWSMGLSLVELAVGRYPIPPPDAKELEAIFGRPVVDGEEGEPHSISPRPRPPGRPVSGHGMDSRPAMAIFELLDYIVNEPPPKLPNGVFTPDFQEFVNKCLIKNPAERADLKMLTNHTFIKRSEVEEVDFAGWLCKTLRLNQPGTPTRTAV
Chain of BTK (Q06187 whole entry, looked up, species assumed): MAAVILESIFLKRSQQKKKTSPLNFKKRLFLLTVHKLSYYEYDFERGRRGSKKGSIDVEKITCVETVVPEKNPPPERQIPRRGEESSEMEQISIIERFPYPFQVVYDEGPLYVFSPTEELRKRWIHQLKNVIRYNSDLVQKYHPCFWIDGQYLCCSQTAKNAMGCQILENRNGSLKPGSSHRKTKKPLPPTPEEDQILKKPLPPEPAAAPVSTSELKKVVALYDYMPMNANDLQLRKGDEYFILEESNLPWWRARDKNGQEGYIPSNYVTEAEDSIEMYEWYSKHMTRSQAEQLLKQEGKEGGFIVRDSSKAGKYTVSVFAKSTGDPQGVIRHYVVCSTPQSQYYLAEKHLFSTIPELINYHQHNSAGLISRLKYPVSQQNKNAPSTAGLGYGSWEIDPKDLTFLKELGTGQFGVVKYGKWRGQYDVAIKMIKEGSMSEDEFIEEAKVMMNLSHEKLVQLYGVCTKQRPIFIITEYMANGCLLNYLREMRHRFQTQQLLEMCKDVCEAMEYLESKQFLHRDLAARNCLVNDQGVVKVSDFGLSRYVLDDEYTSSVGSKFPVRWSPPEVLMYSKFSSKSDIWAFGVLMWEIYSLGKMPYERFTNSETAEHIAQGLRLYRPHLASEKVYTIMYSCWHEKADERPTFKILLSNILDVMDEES
Chain of RSK2 (P51812 whole entry, species assumed): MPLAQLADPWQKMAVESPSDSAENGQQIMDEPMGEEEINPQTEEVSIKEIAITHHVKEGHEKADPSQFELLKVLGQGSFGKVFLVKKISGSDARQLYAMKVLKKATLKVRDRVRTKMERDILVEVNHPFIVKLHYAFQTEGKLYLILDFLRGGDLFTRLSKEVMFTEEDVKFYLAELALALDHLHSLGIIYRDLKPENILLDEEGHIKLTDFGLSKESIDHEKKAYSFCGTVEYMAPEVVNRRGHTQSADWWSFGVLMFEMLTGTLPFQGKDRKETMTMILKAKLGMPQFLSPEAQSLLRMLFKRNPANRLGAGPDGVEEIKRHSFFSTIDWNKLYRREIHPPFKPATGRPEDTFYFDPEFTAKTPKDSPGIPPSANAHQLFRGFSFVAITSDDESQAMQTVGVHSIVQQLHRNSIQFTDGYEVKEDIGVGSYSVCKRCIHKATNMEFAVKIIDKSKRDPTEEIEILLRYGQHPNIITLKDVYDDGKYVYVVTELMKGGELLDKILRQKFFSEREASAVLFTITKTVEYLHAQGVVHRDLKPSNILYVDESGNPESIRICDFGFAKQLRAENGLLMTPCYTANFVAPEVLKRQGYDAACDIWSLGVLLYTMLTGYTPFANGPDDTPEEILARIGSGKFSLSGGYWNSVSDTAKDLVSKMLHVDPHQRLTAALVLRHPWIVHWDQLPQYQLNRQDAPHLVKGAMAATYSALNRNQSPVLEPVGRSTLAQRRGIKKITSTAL
Chain of MNK1 (Q9BUB5 whole entry, species assumed): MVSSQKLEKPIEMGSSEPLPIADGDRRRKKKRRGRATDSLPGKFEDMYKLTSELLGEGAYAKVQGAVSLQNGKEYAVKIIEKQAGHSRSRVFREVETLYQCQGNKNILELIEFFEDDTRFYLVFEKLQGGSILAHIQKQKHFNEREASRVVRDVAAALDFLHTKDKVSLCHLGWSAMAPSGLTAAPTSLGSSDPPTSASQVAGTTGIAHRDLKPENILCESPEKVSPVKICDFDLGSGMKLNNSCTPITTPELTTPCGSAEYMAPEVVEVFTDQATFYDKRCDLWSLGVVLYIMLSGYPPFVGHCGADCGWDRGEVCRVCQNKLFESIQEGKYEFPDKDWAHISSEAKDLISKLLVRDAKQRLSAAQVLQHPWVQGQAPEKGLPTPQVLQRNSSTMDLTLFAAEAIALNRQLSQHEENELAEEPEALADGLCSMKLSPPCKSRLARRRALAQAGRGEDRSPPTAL
Chain of MSK1 (O75582 whole entry, species assumed): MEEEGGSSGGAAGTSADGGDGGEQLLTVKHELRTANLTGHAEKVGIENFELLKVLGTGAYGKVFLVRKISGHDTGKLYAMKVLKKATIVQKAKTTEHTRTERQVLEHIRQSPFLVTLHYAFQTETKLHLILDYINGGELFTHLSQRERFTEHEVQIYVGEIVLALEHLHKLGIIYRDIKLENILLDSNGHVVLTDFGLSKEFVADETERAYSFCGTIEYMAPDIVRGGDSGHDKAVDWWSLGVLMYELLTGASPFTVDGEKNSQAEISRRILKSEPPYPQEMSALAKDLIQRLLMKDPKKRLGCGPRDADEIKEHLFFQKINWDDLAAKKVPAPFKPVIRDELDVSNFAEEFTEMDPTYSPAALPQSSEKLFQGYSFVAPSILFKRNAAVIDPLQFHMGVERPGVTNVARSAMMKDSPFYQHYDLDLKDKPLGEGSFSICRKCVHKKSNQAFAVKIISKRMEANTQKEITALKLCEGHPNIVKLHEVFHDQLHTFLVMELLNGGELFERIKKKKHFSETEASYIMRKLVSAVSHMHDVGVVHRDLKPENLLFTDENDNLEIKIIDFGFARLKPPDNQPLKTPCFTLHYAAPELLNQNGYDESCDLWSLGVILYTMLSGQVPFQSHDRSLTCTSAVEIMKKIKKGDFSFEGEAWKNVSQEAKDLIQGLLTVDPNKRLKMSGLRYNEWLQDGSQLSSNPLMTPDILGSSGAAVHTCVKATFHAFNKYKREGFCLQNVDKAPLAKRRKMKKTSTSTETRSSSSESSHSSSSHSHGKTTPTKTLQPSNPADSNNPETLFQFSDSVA
Chain of MKK6 (P52564 whole entry, species assumed): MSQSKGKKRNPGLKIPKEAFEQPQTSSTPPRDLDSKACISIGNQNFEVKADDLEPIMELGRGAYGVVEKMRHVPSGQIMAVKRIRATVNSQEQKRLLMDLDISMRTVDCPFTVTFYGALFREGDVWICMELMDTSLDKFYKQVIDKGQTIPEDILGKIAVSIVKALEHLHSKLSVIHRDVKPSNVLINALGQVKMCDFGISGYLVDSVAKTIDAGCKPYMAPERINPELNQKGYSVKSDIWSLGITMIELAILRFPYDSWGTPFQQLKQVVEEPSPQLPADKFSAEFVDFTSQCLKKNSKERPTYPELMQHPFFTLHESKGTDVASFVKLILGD

CNc1nc(Nc2ccc(C(=O)N3CCOCC3)cc2OC)nc2[nH]cc(Cl)c12 [Compound 18, (4-((5-chloro-4-(methylamino)-7H-pyrrolo[2,3-d]pyrimidin-2-yl)amino)-3-methoxyphenyl)(morpholino)methanone]
remaining activity at 1 µM (MST2; [8]): 90%
remaining activity at 1 µM (MST2; [9]): 82%
percent remaining enzymatic activity (EPHB2 [1]; I10): 58%
remaining activity at 1 µM (EPHB2 [1]; [10]): 60%
KinomeScan value (CDK3): 96
KinomeScan value (WNK1 [2]): 95
remaining activity at 1 µM (TAK1; [8]): 96%
remaining activity at 1 µM (TAK1; [9]): 42%
remaining activity at 1 µM (MKK2; [8]): 101%
remaining activity at 1 µM (MKK2; [9]): 72%
KinomeScan value (MAP4K3): 100
remaining activity at 1 µM (MSK1; [8]): 109%
remaining activity at 1 µM (MSK1; [9]): 99%
percent remaining enzymatic activity (WNK1 [3]; I10): 115%
remaining activity at 1 µM (WNK1 [3]; [10]): 108%
remaining activity at 1 µM (PAK6; [8]): 102%
remaining activity at 1 µM (PAK6; [9]): 105%
remaining activity at 1 µM (RSK2; [8]): 117%
remaining activity at 1 µM (RSK2; [9]): 94%
KinomeScan value [4]: 77
percent remaining enzymatic activity (MARK4; I10): 98%
remaining activity at 1 µM (MARK4; [10]): 109%
KinomeScan value (EPHB2 [5]): 98
remaining activity at 1 µM (NEK2a; [8]): 97%
remaining activity at 1 µM (NEK2a; [9]): 103%
remaining activity at 1 µM (MNK1; [8]): 102%
remaining activity at 1 µM (MNK1; [9]): 78%
percent remaining enzymatic activity (CDK2-Cyclin A; I10): 67%
remaining activity at 1 µM (CDK2-Cyclin A; [10]): 102%
remaining activity at 1 µM (PIM3; [8]): 96%
remaining activity at 1 µM (PIM3; [9]): 75%
KinomeScan value (CSK [6]): 100
KinomeScan value (ULK3): 96
IC50 (wild type LRRK2): 6.5 nM
remaining activity at 1 µM (MKK6; [8]): 37%
remaining activity at 1 µM (MKK6; [9]): 11%
KinomeScan value (LATS2): 93
remaining activity at 1 µM (ERK1; [8]): 107%
remaining activity at 1 µM (ERK1; [9]): 68%
remaining activity at 1 µM (TTBK1; [8]): 103%
remaining activity at 1 µM (TTBK1; [9]): 98%
KinomeScan value (CDC2L5): 100
percent remaining enzymatic activity (BTK; I10): 126%
remaining activity at 1 µM (BTK; [10]): 116%
remaining activity at 1 µM (OSR1; [8]): 61%
remaining activity at 1 µM (OSR1; [9]): 12%
percent remaining enzymatic activity (CSK [7]; I10): 92%
remaining activity at 1 µM (CSK [7]; [10]): 89%
percent remaining enzymatic activity (NUAK1; I10): 17%
remaining activity at 1 µM (NUAK1; [10]): 75%
remaining activity at 1 µM (p38b MAPK; [8]): 108%
remaining activity at 1 µM (p38b MAPK; [9]): 79%
KinomeScan value (BMPR2): 100
remaining activity at 1 µM (PDK1; [8]): 91%
remaining activity at 1 µM (PDK1; [9]): 88%
percent remaining enzymatic activity (AMPK; I1, 1 μM): 112%
percent remaining enzymatic activity (AMPK; I10): 103%

Reference: US10913744B2, “LRRK2 inhibitors and methods of making and using the same” (Dana-Farber Cancer Institute, Inc., priority 2015, dated 2021)
